Measurements taken from the NIST ThermoML archive (doi:10.1016/j.jct.2015.08.031).

Conditions: 101.33 kPa, Crystal, relaxation calorimeter

O[C@H]1[C@H](O)[C@H](O)OC[C@H]1O [β-D-arabinopyranose]
Conditions | molar entropy [J/K/mol]
0.5 K | 0.0007089
1 K | 0.001551
1.5 K | 0.002666
2 K | 0.004203
2.5 K | 0.006327
3 K | 0.009226
3.5 K | 0.01311
4 K | 0.01824
4.5 K | 0.02488
5 K | 0.03336
5.5 K | 0.04406
6 K | 0.0574
6.5 K | 0.07383
7 K | 0.09385
7.5 K | 0.118
8 K | 0.1468
8.5 K | 0.1809
9 K | 0.2206
9.5 K | 0.2662
10 K | 0.3182
11 K | 0.4423
12 K | 0.5944
13 K | 0.7758
14 K | 0.9866
15 K | 1.227
16 K | 1.496
17 K | 1.793
18 K | 2.116
19 K | 2.466
20 K | 2.839
25 K | 5.013
30 K | 7.582
35 K | 10.43
40 K | 13.47
45 K | 16.66
50 K | 19.95
55 K | 23.28
60 K | 26.64
65 K | 30
70 K | 33.38
75 K | 36.77
80 K | 40.16
85 K | 43.54
90 K | 46.93
95 K | 50.31
100 K | 53.68
110 K | 60.41
120 K | 67.11
130 K | 73.78
140 K | 80.41
150 K | 87.01
160 K | 93.58
170 K | 100.12
180 K | 106.62
190 K | 113.1
200 K | 119.55
210 K | 125.98
220 K | 132.38
230 K | 138.76
240 K | 145.12
250 K | 151.45
260 K | 157.77
270 K | 164.07
273.15 K | 166.06
280 K | 170.36
290 K | 176.63
298.15 K | 181.72
300 K | 182.88
